Measurements: EPA's CvTdb concentration-time database

Assays:
Rat [1] = assay: concentration in liver after dosing; conditions: 6 h; dosed: Potassium Perfluorobutane Sulfonate; 20 mg/kg; oral; Male; Harlan Sprague Dawley
Rat [2] = assay: concentration in plasma after dosing; conditions: dosed: Potassium Perfluorobutane Sulfonate, 4 mg/kg, oral, Male, Harlan Sprague Dawley
Rat [3] = assay: concentration in plasma after dosing; conditions: 0.5 h; dosed: Potassium Perfluorobutane Sulfonate; 4 mg/kg; iv; Male; F344
Rat [4] = assay: concentration in plasma after dosing; conditions: dosed: Potassium Perfluorobutane Sulfonate, 4 mg/kg, oral, Male, Harlan Sprague Dawley; remark: listed apart in the source
Rat [5] = assay: concentration in plasma after dosing; conditions: dosed: Potassium Perfluorobutane Sulfonate, 4 mg/kg, iv, Male, F344
Rat [6] = assay: concentration in plasma after dosing; conditions: dosed: Potassium Perfluorobutane Sulfonate, 4 mg/kg, oral, Male, Harlan Sprague Dawley; remark: listed apart in the source
Rat [7] = assay: concentration in plasma after dosing; conditions: dosed: Potassium Perfluorobutane Sulfonate, 4 mg/kg, oral, Male, Harlan Sprague Dawley; remark: listed apart in the source
Rat [8] = assay: concentration in plasma after dosing; conditions: 5 min; dosed: Nitrite; 80 mg/kg; oral; Female; F344
Rat [9] = assay: concentration in plasma after dosing; conditions: dosed: Nitrite, 80 mg/kg, oral, Female, F344
Rat [10] = assay: concentration in plasma after dosing; conditions: dosed: Nitrite, 20 mg/kg, iv, Male, F344
Rat [11] = assay: concentration in plasma after dosing; conditions: 5 min; dosed: Nitrite; 80 mg/kg; oral; Female; F344; remark: listed apart in the source
Rat [12] = assay: concentration in plasma after dosing; conditions: 0.25 h; dosed: 2-Hydroxy-4-methoxybenzophenone; 500 mg/kg; oral; Female; F344
Mouse [13] = assay: concentration in plasma after dosing; conditions: 2 h; dosed: 2-Hydroxy-4-methoxybenzophenone; 50 mg/kg; iv; Male; B6C3F1
Mouse [14] = assay: concentration in plasma after dosing; conditions: dosed: 2-Hydroxy-4-methoxybenzophenone, B6C3F1
Rat [15] = assay: concentration in brain after dosing; conditions: 12 h; dosed: Perfluorooctanoic acid; 80 mg/kg; oral; Female; Harlan Sprague Dawley
Rat [16] = assay: concentration in liver after dosing; conditions: 12 h; dosed: Perfluorooctanoic acid; 80 mg/kg; oral; Female; Harlan Sprague Dawley
Rat [17] = assay: concentration in liver after dosing; conditions: 6 h; dosed: Fluorotelomer alcohol 8+2; 24 mg/kg; oral; Male; Harlan Sprague Dawley
Rat [18] = assay: concentration in liver after dosing; conditions: 12 h; dosed: Fluorotelomer alcohol 8+2; 24 mg/kg; oral; Male; Harlan Sprague Dawley
Rat [19] = assay: concentration in liver after dosing; conditions: 528 h; dosed: Perfluorooctanoic acid; 12 mg/kg; oral; Male; Harlan Sprague Dawley
Rat [20] = assay: concentration in kidney after dosing; conditions: 3 h; dosed: Fluorotelomer alcohol 8+2; 24 mg/kg; oral; Male; Harlan Sprague Dawley
Rat [21] = assay: concentration in kidney after dosing; conditions: 3 h; dosed: Perfluorooctanoic acid; 12 mg/kg; oral; Male; Harlan Sprague Dawley
Rat [22] = assay: concentration in kidney after dosing; conditions: 3 h; dosed: Perfluorooctanoic acid; 80 mg/kg; oral; Female; Harlan Sprague Dawley
Rat [23] = assay: concentration in plasma after dosing; conditions: dosed: Fluorotelomer alcohol 8+2, 12 mg/kg, oral, Male, Harlan Sprague Dawley
Rat [24] = assay: concentration in plasma after dosing; conditions: dosed: 678-39-7, 40 mg/kg, iv, Male, F344
Rat [25] = assay: concentration in plasma after dosing; conditions: dosed: 678-39-7, 40 mg/kg, iv, Male, F344; remark: listed apart in the source
Rat [26] = assay: concentration in kidney after dosing; conditions: 12 h; dosed: Perfluorooctanoic acid; 12 mg/kg; oral; Male; Harlan Sprague Dawley
Rat [27] = assay: concentration in plasma after dosing; conditions: dosed: 678-39-7, 12 mg/kg, iv, Male, F344
Rat [28] = assay: concentration in plasma after dosing; conditions: dosed: 678-39-7, 40 mg/kg, iv, Male, F344; remark: listed apart in the source
rat [29] = assay: concentration in plasma after dosing; conditions: dosed: benzo[a]pyrene, 100 ug/m^3, inhalation, duration: 4 hr, F344

O=S(=O)([O-])C(F)(F)C(F)(F)C(F)(F)C(F)(F)F.[K+] [Potassium Perfluorobutane Sulfonate]
Conditions	concentration in liver [ng/g]	concentration in plasma [ng/mL]
Rat [1]	51600	–
Rat [3]	–	12000

Conditions	concentration in plasma [ng/mL]
Rat [2], 1 h	14800
Rat [2], 24 h	603
Rat [4], 0.25 h	3220
Rat [4], 6 h	9970
Rat [5], 0.75 h	21100
Rat [5], 24 h	171
Rat [6], 0.5 h	6060
Rat [6], 9 h	5230
Rat [7], 0.75 h	13400
Rat [7], 12 h	4960

O=N[O-] [Nitrite]
Conditions	concentration in plasma [µg/mL]
Rat [8]	7.3
Rat [11]	9.6

concentration in plasma [µg/mL]
Conditions	1.25 h	6 h	10 min
Rat [9]	–	1.8	24.8
Rat [10]	1.7	–	4.8

COc1ccc(C(=O)c2ccccc2)c(O)c1 [2-Hydroxy-4-methoxybenzophenone]
Conditions	concentration in plasma [µg/mL]
Mouse [13]	0.236
Rat [12]	1.73

concentration in plasma [µg/mL], Mouse [14]
Conditions	0.25 h	2 h	2.5 min	3 h	10 min
50 mg/kg, iv, Female	4.57	0.259	–	0.193	9.66
50 mg/kg, iv, Male	5.62	0.279	–	0.235	11.5
100 mg/kg, oral, Female	0.103	0.0201	0.00658	0.0118	0.0573
100 mg/kg, oral, Male	0.0622	0.0365	0.0134	0.0193	0.0415
250 mg/kg, oral, Female	0.26	0.0458	0.022	0.264	0.165
250 mg/kg, oral, Male	0.519	0.0548	0.0157	0.0419	0.0695
500 mg/kg, oral, Female	2.95	11.5	–	–	0.526
500 mg/kg, oral, Male	0.238	0.0731	–	–	0.176

O=C(O)C(F)(F)C(F)(F)C(F)(F)C(F)(F)C(F)(F)C(F)(F)C(F)(F)F [Perfluorooctanoic acid]
Conditions	concentration in brain [ng/g]	concentration in kidney [ng/g]	concentration in liver [ng/g]
Rat [15]	1000	–	–
Rat [16]	–	–	64300
Rat [17]	–	–	1450
Rat [18]	–	–	1350
Rat [19]	–	–	19500
Rat [20]	–	317	–
Rat [21]	–	23700	–
Rat [22]	–	49700	–
Rat [26]	–	26900	–

Conditions	concentration in plasma
Rat [23], 48 h	657 ng/mL
Rat [23], 192 h	424 ng/mL
Rat [24], 0.25 h	970 ng/mL
Rat [24], 6 h	1760 ng/mL
Rat [25], 0.5 h	234000 ng/mL
Rat [25], 3 h	2800 ng/mL
Rat [25], 5 min	172 ng/mL
Rat [25], 12 h	25600 ng/mL
Rat [27], 0.5 h	235 ng/mL
Rat [27], 9 h	438 ng/mL
Rat [28], 5 min	350 µg/mL
Rat [28], 6 h	66.1 µg/mL

c1ccc2c(c1)cc1ccc3cccc4ccc2c1c34 [benzo[a]pyrene]
concentration in plasma [µg/mL], rat [29]
Conditions	0.05 h	1 h	2 h	4 h
female	0.01	0.023	0.011	0.00107
male	0.0149	0.018	0.012	0.002
